Test results reported in patent US4960900A, “Oxyimino derivatives of thiazole, method of preparation and use in therapy” (priority 1987, dated 1990).
Like-named read-outs stand apart in the source and are kept apart here.

Key:
[1] = system: convulsions induced by supramaximal electroshock (MCE); test: Anticonvulsant properties: convulsions induced by supramaximal electroshock (MCE), oral, mice; assay type: in vivo; details: per os, male mice, 30 min after administration; for ED50: Mus musculus, po, 0.5 h, read-out: ED50 in respect of convulsions induced by MCE
Description: (§7) The anticonvulsant properties were investigated on male mice, thirty minutes after the oral administration of the substances to be studied, by the induction of convulsive seizures.
These seizures are caused either by the intraperitoneal injection of pentetrazole (125 mg/kg) or by electrical stimulation of the cornea (supra-maximal electroshock, abbreviated to MCE).
MCE: supramaximal electroshock;
*: ED50 in mg/kg, determined per os on groups each containing ten

[2] = system: male mice; test: in vivo; assay type: in vivo; details: versus sodium valproate and trimethadione
Description: (§1) The neurotoxic properties were assessed on male mice by the so-called "Rota-rod" test carried out thirty minutes after the oral administration of the substances to be studied. The animals (divided into groups each containing ten male mice per dose and per product) are installed on the rod and their fall is observed over the next two minutes.
(§2) The results obtained are expressed in the form of the 50% neurotoxic dose (TD50) per os, which is the dose causing 50% of the animals to fall.
(§3) Protection index: TD50 per os/ED50 per os
(§4) *dose determined per os on groups each containing ten male mice.

[3] = in vivo; assay type: in vivo; details: mouse, in vivo, po; for selectivity ratio: TD50 per os/ED50 per os
Description: as §1, §2, §3, §4

[4] = system: male mice; test: in vivo; details: for LD50: Table II, oral, male mice, 14 days
Description: (§5) The toxicity of the products to be studied was investigated by the oral administration, using an esophageal tube, of each of the said products to male mice with a body weight of 18 to 22 g, divided into groups each containing 10 to 20 animals. The mortality was recorded over a 14-day period.
(§6) The results obtained, which are expressed in the form of LD50 in mg/kg, are collated in Table II below.

[5] = in vivo; details: mouse, in vivo, po; for LD50 at 336 h: male mice; for selectivity ratio: LD50 per os/ED50 per os
Description: as §5, §6

[6] = system: convulsions induced by pentetrazole (PTZ); test: Anticonvulsant properties: convulsions induced by pentetrazole (PTZ), oral, mice; assay type: in vivo; details: per os, male mice, 30 min after administration, pentetrazole 125 mg/kg i.p.; for ED50: Mus musculus, po, 0.5 h, read-out: ED50 in respect of convulsions induced by PTZ
Description: as §7

[7] = PTZ, read-out: Protection index PTZ
[8] = MCE, read-out: Protection index MCE

## CC(=NOCc1cccc(C(F)(F)F)c1)c1scnc1C [Ex. 16]
[1]
  ED50: > 200 mg/kg
[2]
  protection indices compared with the reference products: better than those of the reference products
[3]; [7]
  selectivity ratio: 15.6
[3]; Rota-rod, per os, male mice, 30 min after administration, read-out: TD50
  TD50 at 0.5 h: 1500 mg/kg
[4]; versus sodium valproate and trimethadione
  therapeutic indices compared with the reference products: better than those of the reference products
[5]; LD50, Table II, 14 days
  LD50 at 336 h: > 1000 mg/kg
[5]; LD50, Table IV, per os
  LD50 at 336 h: > 1000 mg/kg
[5]; Therapeutic index PTZ, PTZ
  selectivity ratio: > 10.4
[6]
  ED50: 96 mg/kg

## CCOc1ccccc1CON=C(C)c1scnc1C [Ex. 17]
[1]
  ED50: > 200 mg/kg
[5]; LD50, Table II, 14 days
  LD50 at 336 h: > 1000 mg/kg
[6]
  ED50: > 200 mg/kg

## COC(=O)CON=C(C)c1scnc1C [Ex. 18]
[1]
  ED50: > 200 mg/kg
[5]; LD50, Table II, 14 days
  LD50 at 336 h: > 1000 mg/kg
[6]
  ED50: > 200 mg/kg

## CC(=NOCC(=O)O)c1scnc1C [Ex. 19]
[1]
  ED50: > 200 mg/kg
[5]; LD50, Table II, 14 days
  LD50 at 336 h: > 1000 mg/kg
[6]
  ED50: > 200 mg/kg

## CC(=NOCCN(C)C)c1scnc1C [Ex. 20]
[1]
  ED50: > 200 mg/kg
[5]; LD50, Table II, 14 days
  LD50 at 336 h: > 1000 mg/kg
[6]
  ED50: > 200 mg/kg

## CC(=NOCCN1CCCC1)c1scnc1C [Ex. 21]
[1]
  ED50: > 200 mg/kg
[5]; LD50, Table II, 14 days
  LD50 at 336 h: 360 mg/kg
[6]
  ED50: > 200 mg/kg

## CC(=NO)c1sc(Cl)nc1C [Ex. 22]
[1]
  ED50: > 200 mg/kg
[5]; LD50, Table II, 14 days
  LD50 at 336 h: > 1000 mg/kg
[6]
  ED50: > 200 mg/kg

## CC(=NO)c1sc(Br)nc1C [Ex. 23]
[1]
  ED50: > 200 mg/kg
[5]; LD50, Table II, 14 days
  LD50 at 336 h: > 1000 mg/kg
[6]
  ED50: > 200 mg/kg

## CON=C(C)c1sc(Cl)nc1C [Ex. 24]
[1]
  ED50: > 200 mg/kg
[5]; LD50, Table II, 14 days
  LD50 at 336 h: > 1000 mg/kg
[6]
  ED50: > 200 mg/kg

## CON=C(C)c1sc(Br)nc1C [Ex. 25]
[1]
  ED50: > 200 mg/kg
[5]; LD50, Table II, 14 days
  LD50 at 336 h: > 1000 mg/kg
[6]
  ED50: > 200 mg/kg

## CON=C(C)c1sc(C)nc1C [Ex. 26]
[1]
  ED50: > 200 mg/kg
[5]; LD50, Table II, 14 days
  LD50 at 336 h: > 1000 mg/kg
[6]
  ED50: > 200 mg/kg

## CON=C(C)c1sc(C)nc1C [Ex. 27]
[1]
  ED50 in respect of convulsions induced by MCE: > 200 mg/kg
[4]; 20160 min
  LD50: 1000 mg/kg
[6]
  ED50 in respect of convulsions induced by PTZ: > 200 mg/kg

## CC(=NO)c1scnc1C [Ex. 28, 5-(1-hydroxyiminoethyl)-4-methylthiazole]
[1]
  ED50: > 200 mg/kg
[5]; LD50, Table II, 14 days
  LD50 at 336 h: 1000 mg/kg
[6]
  ED50: 126 mg/kg

## CC(=NO)c1scnc1C [Ex. 29]
[1]
  ED50 in respect of convulsions induced by MCE: > 200 mg/kg
[4]
  LD50: 1000 mg/kg
[6]; 30 min
  ED50 in respect of convulsions induced by PTZ: 200 mg/kg

## CN1C(=O)OC(C)(C)C1=O [TRIM, trimethadione, reference compound]
[1]
  ED50: 500 mg/kg
[3]; [8]
  selectivity ratio: 2
[3]; [7]
  selectivity ratio: 4
[5]; Therapeutic index MCE, MCE
  selectivity ratio: 4.4
[5]; Therapeutic index PTZ, PTZ
  selectivity ratio: 8.7

## CCCC(CCC)C(=O)O [VALP, sodium valproate, reference compound]
[3]; [8]
  selectivity ratio: 2.8
[3]; [7]
  selectivity ratio: 2.7
[5]; Therapeutic index MCE, MCE
  selectivity ratio: 4
[5]; Therapeutic index PTZ, PTZ
  selectivity ratio: 4
